Test results published in patent US8017600B2, “Imidazole compounds” (Janssen Pharmaceutica NV, priority 2004, dated 2011).
pIC50, pKi: −log10 of the molar value.

Assays:
[1] = target: T1, human histamine H4 receptor (Homo sapiens, UniProt Q9H3N8); assay: Binding assay on recombinant human histamine H4 receptor (3H-histamine displacement); conditions: membranes of SK-N-MC or COS7 cells expressing human H4 receptor, Cheng-Prusoff
T1 construct: expressed in transfected cells; host or cells: SK-N-MC cells or COS7 cells, transient transfection; cell membranes
Protocol: SK-N-MC cells or COS7 cells were transiently transfected with pH4R and grown in 150 cm^2 tissue culture dishes. Cells were washed with saline solution, scraped with a cell scraper and collected by centrifugation (1000 rpm, 5 min). Cell membranes were prepared by homogenization of the cell pellet in 20 mM Tris-HCl with a polytron tissue homogenizer for 10 sec at high speed. Homogenate was centrifuged at 1000 rpm for 5 min at 4° C. The supernatant was then collected and centrifuged at 20,000×g for 25 min at 4° C. The final pellet was resuspended in 50 mM Tris-HCl. Cell membranes were incubated with ^3H-histamine (5-70 nM) in the presence or absence of excess histamine (10,000 nM). Incubation occurred at room temperature for 45 min. Membranes were harvested by rapid filtration over Whatman GF/C filters and washed 4 times with ice-cold 50 mM Tris HCl. Filters were then dried, mixed with scintillant and counted for radioactivity. SK-N-MC or COS7 cells expressing human histamine H4 receptor were used to measure the affinity of binding of other compounds and their ability to displace ^3H-ligand binding by incubating the above-described reaction in the presence of various concentrations of inhibitor or compound to be tested.

human eosinophils = assay: Inhibition of histamine-induced eosinophil shape change (gated autofluorescence forward scatter assay); conditions: for Fold Change: eosinophil shape change, 10 μM antagonist; for effect on histamine-induced shape change: human eosinophils, result in words

pKi [1]	Compound	further results
7.48	Cc1[nH]c(-c2cccc(OCCCCC3CCN(C)CC3)c2)nc1-c1ccc(Cl)cc1 [Example 34, 4-(4-{3-[4-(4-Chloro-phenyl)-5-methyl-1H-imidazol-2-yl]-phenoxy}-butyl)-1-methyl-piperidine]	
7.24	CN1CCC(CCCCOc2cccc(-c3nc(-c4ccccc4)c(C(F)(F)F)[nH]3)c2)CC1 [Example 35, 1-Methyl-4-{4-[3-(4-phenyl-5-trifluoromethyl-1H-imidazol-2-yl)-phenoxy]-butyl}-piperidine]	
6.64	Cc1cc(OCCCC2CCN(C)CC2)ccc1-c1nc(C)c(CC(C)C)[nH]1 [Example 38, 4-{3-[4-(5-Isobutyl-4-methyl-1H-imidazol-2-yl)-3-methyl-phenoxy]-propyl}-1-methyl-piperidine]	
7.03	Cc1nc(-c2ccc(OCCCC3CCN(C)CC3)cc2Cl)[nH]c1CC(C)C [Example 40, 4-{3-[3-Chloro-4-(5-isobutyl-4-methyl-1H-imidazol-2-yl)-phenoxy]-propyl}-1-methyl-piperidine]	
6.60	Cc1[nH]c(-c2cccc(OCCCCC3CCN(C)CC3)c2)nc1-c1ccc(C(F)(F)F)cc1 [Example 41, 1-Methyl-4-(4-{3-[5-methyl-4-(4-trifluoromethyl-phenyl)-1H-imidazol-2-yl]-phenoxy}-butyl)-piperidine]	
5.71	CN1CCN(CCCOc2ccc(-c3ncc[nH]3)cc2Cl)CC1 [Example 42, 1-{3-[2-Chloro-4-(1H-imidazol-2-yl)-phenoxy]-propyl}-4-methyl-piperazine]	
5.60	Cc1nc(-c2ccc(OCCCN3CCN(C)CC3)cc2Cl)[nH]c1C [Example 43, 1-{3-[3-Chloro-4-(4,5-dimethyl-1H-imidazol-2-yl)-phenoxy]-propyl}-4-methyl-piperazine]	
7.70	CN1CCN(CCCOc2ccc(-c3nc(-c4ccccc4)c(C(F)(F)F)[nH]3)c(Cl)c2)CC1 [Example 44, 1-{3-[3-Chloro-4-(4-phenyl-5-trifluoromethyl-1H-imidazol-2-yl)-phenoxy]-propyl}-4-methyl-piperazine]	
7.10	CN1CCCN(CCCOc2ccc(-c3nc(-c4ccccc4)c(C(F)(F)F)[nH]3)cc2Cl)CC1 [Example 45, 1-{3-[2-Chloro-4-(4-phenyl-5-trifluoromethyl-1H-imidazol-2-yl)-phenoxy]-propyl}-4-methyl-[1,4]diazepane]	
7.80	Cc1cc(OCCCC2CCN(C)CC2)ccc1-c1nc(-c2cccc(C(F)(F)F)c2)c(C)[nH]1 [Example 46, 1-Methyl-4-(3-{3-methyl-4-[5-methyl-4-(3-trifluoromethyl-phenyl)-1H-imidazol-2-yl]-phenoxy}-propyl)-piperidine]	
7.48	Cc1cc(OCCCC2CCN(C)CC2)ccc1-c1nc(-c2ccc(Cl)cc2)c(C)[nH]1 [Example 47, 4-(3-{4-[4-(4-Chloro-phenyl)-5-methyl-1H-imidazol-2-yl]-3-methyl-phenoxy}-propyl)-1-methyl-piperidine]	
6.21	Cc1cc(OCCOC2CCN(C)CC2)ccc1-c1nc(-c2ccc(Cl)cc2)c(C)[nH]1 [Example 48, 4-(2-{4-[4-(4-Chloro-phenyl)-5-methyl-1H-imidazol-2-yl]-3-methyl-phenoxy}-ethoxy)-1-methyl-piperidine]	
	CN1CCN(C(=O)c2cc3cc(Cl)ccc3[nH]2)CC1 [H4 Antagonist, (5-chloro-1H-indol-2-yl)-(4-methyl-piperazin-1-yl)-methanone]	pIC50 (human eosinophils; Homo sapiens, Eosinophil, read-out: IC50 of inhibition of histamine-induced eosinophil shape change): 6.57
	CN(C)CCOC(c1ccccc1)c1ccccc1 [diphenhydramine]	Fold Change (human eosinophils; histamine 0 μM): 1.00; Fold Change (human eosinophils; histamine 0.01 μM): 1.03; Fold Change (human eosinophils; histamine 0.1 μM): 1.18; Fold Change (human eosinophils; histamine 1 μM): 1.50; Fold Change (human eosinophils; histamine 10 μM): 1.63; effect on histamine-induced shape change (human eosinophils): did not alter the histamine-induced shape change
	CNC(=C[N+](=O)[O-])NCCSCc1ccc(CN(C)C)o1 [ranatidine]	Fold Change (human eosinophils; histamine 0 μM): 1.00; Fold Change (human eosinophils; histamine 0.01 μM): 1.04; Fold Change (human eosinophils; histamine 0.1 μM): 1.21; Fold Change (human eosinophils; histamine 1 μM): 1.49; Fold Change (human eosinophils; histamine 10 μM): 1.64; effect on histamine-induced shape change (human eosinophils): did not alter the histamine-induced shape change

Compound	pKi [1]	further results
CN1CCC(CCCCOc2cc(-c3nc(-c4ccccc4)c(C(F)(F)F)[nH]3)ccn2)CC1 [Example 36, 2-[4-(1-Methyl-piperidin-4-yl)-butoxy]-4-(4-phenyl-5-trifluoromethyl-1H-imidazol-2-yl)-pyridine]	7.27	
Cc1[nH]c(-c2ccnc(OCCCCC3CCN(C)CC3)c2)nc1-c1cccc(C(F)(F)F)c1 [Example 37, 2-[4-(1-Methyl-piperidin-4-yl)-butoxy]-4-[5-methyl-4-(3-trifluoromethyl-phenyl)-1H-imidazol-2-yl]-pyridine]	6.76	
Cc1[nH]c(-c2ccnc(OCCCCC3CCN(C)CC3)c2)nc1-c1ccc(Cl)cc1 [Example 39, 4-[4-(4-Chloro-phenyl)-5-methyl-1H-imidazol-2-yl]-2-[4-(1-methyl-piperidin-4-yl)-butoxy]-pyridine]	6.64	
CN1CCC(CCCCOc2cccc(-c3nc4cccnc4[nH]3)c2)CC1 [Example 69, 2-{3-[4-(1-Methyl-piperidin-4-yl)-butoxy]-phenyl}-3H-imidazo[4,5-b]pyridine]	5.85	
